The record followed here is patent US6476203B1, “Safe pharmaceutical composition for treating and preventing infertility and increasing immune function” (priority 2002, dated 2002).

The test system of one assay is lymphocytes. Put plainly: Effect of ICN on lymphoblastoid transformation (3H-TdR liquid scintillation). It is filed as in vivo, mice. As to conditions: 3H-TdR uptake, PHA-stimulated lymphocytes. The protocol: (1) Experimental procedure of animal is the same as in Example 2.
(2) Lemphoblastoid transformation test:
I. Reagents and conditions for cell culture
a. Culture media—RPMI 1640, medium 199 minimal essential medium (Eagle).
b. Buffer—Hepes buffer, the final concentration at 37° C. was 25 mM, to maintain the pH of the medium at 7.31.
c. Serum—generally 15-205 fetal bovine serum was incorporated, for lymphocytes from mice, 5% was used.
d. Gaseous phase—5% CO2 in air.
e. Cell concentration—generally 1-2 c 10^6/ml.
f. Stimulants—20μl/ml for phytohemagglutinin containing polysaccharide (PHA-M) or 10 μl/ml for polysaccharide-free purified phytohemagglutinin (PHA-P).
II. Measured by liquid scintillation
a. The conditions of cell culture are same as above. ^3H-TdR was added after 48 hours of incubation at a final concentration of 1 μCi/ml and continued the incubation for 24 hours.
b. Washed the cells twice with cold normal saline and the erythrocytes were lysed. The intact lymphocytes were again washed once with cold saline. Spun down the lymphocytes and added 2 ml of 10% trichloroacetic acid to precipitate the protein. Washed twice with normal saline. Added 2 ml of ethanol:ether (1:1) to wash once. 0.2 ml of formic acid was then added for digestion till the precipitate was dissolved.
c. Added 4 ml of scintillation fluid to 0.1 ml of the final sample and counted in a liquid scintillation counter.

For a further assay, the system named is human blood lymphocytes. Put plainly: Effects of ICN on immune function of human blood lymphocytes (3H-TdR incorporation). It is filed as cell-based. Particulars: for CPM (3H-TdR incorporation into lymphocytes): ICN added to culture medium. Here is the method: 2 ml of venous blood, heparinized was obtained from each of the participants. […] MEM was supplemented with 0.125 ml of heat-inactivated fetal calf serum, 100 units of Penicillin and 0.1 mg of streptomycin per ml of medium. Culture medium was divided into treated (ICN) and control group. ICN was added to the culture medium of treatment group. […] The ^3H-thymidine (^3H-TdR) was added into all the cultures (2 μci/ml) for last 12 hours of culture. The cells were harvested on 0.45 μm filters, washed with phosphate buffer (ph 7.4) and bleached with H2O2. The filters were then dried and the incorporation of ^3H-TdR into lymphocytes cell was measured by scintillation counter.

The subject of assay [1] is bone marrow stem cells (CFU-S). Put plainly: Effects of ICN on hemopoietic system (spleen colony assay). It is filed as in vivo, mice. An excerpt:
With increased cells in bone-marrow (BMC), endogenous colonies in spleen and higher ^3H-TdR uptake in marrow and spleen. The level of serum colony stimulating factor (CSF) increased after injection.

The subject of a further assay is testosterone. Put plainly: Effect of ICN on testosterone (radioimmune method). The format is in vivo, Wistar male rats. The protocol:
Thirty normal Wistar male rats weighing 280+20 g were selected.
The rats were killed 30th days after the administration. The testosterone level of the rats in various groups was determined by using radioimmune method. The index of testis was determined. Control group was pathological model group. In control group, rats treated by cyclophosphamide (CYE). Rats treated by ICN+CYE in treatment group.

Another assay has as its system peritoneal macrophage. Kind of assay: Effect of ICN on phagocytosis of peritoneal macrophage. It is filed as in vivo. Particulars: mice, ICN 5.5 mg/kg i.p. daily for 5 days, cyclophosphamide 4.5 mg/kg; macrophages with phagocytized chick red blood cells per 100 macrophages. Here is the method:
The control mice were injected with same volume of normal saline. These injections were repeated daily for 5 days, both treated and control group were injected intraperitoneally with cyclosphosphamide. The dosage of cyclophosphamide is 4.5 mg/kg. The same experimental procedure for example 3, 4 and 5 in testing mice were used. Added 0.02 ml of 5% washed chick red blood cell suspension to 0.5 ml of the peritoneal exudates. Shook gently to mix and incubate at 37° C. for 5 minutes. Dipped two cover slips, closed to each other, in the above mixture and incubated for 30 minutes for the migration of the macrophages along the cover slips, fixed and stained with Sharma stain. Examined microscopically for: Phagocytic rate—number of macrophages with phagocytized chick red blood cells per 100 macrophages counted. Method of animal model is regular.

A further assay relates to male mice. Kind of assay: Effect of ICN on sexual behavior (ejaculation experiments). It is filed as in vivo. The source says: Selected 50 mice including male: 28-32g and female: 24-26g. The age of mice is over 8 weeks. The mice were divided normal group, suspend-loaded group, large dosage of ICN group, small dosage of ICN group and positive control group. The index of major sexual behaviors of male mice is ejaculation experiments operated on 15th day.

Another assay has as its system interleukin-2 (rIL-2). Put plainly: Effect of ICN on interleukin-2 (rIL-2). The format is in vivo. Particulars: treatment group. The source says: The methods of determination rIL-2 were regular.
The subject of a further assay is Lipoperoxides. Put plainly: Effect on peroxidation (hepatic lipoperoxide content). The format is in vivo. The protocol: The animal experiments were performed as previously described. Hepatic lipoperoxide content was determined. In the present study, the effect of SCS on lipoperoxides was examined. It is known that the pathogenesis of CCl4—induced hepatic damage involved reactive oxidant species increasing from the metabolism. The liver injure caused by CCl4 is due to the formation of a reactive toxic metabolite by the hepatic cytochrome P-450 system.

In a further assay the test system is white blood cells. Put plainly: Effect of ICN on white blood cells in rats treated by cyclophosphamide. The format is in vivo. The source says:
Action of ICN and cyclophosphamide on white blood cells was investigated by means of white blood cells assay. […] Method of testing in animal is standard. The dosage of ICN and cyclophosphamide is the same as in above examples. Time of treatment is 10 days.

The mark [2] stands for this setting: mice treated by cyclophosphamide.

Marks after values point to notes of the source that are not given here.

For the substance Icariin [ICN], the “CPM ± SD (lymphoblastoid transformation)” value in the assay on lymphocytes came to 1150 ± 120 CPM. For the same substance, the “CPM (3H-TdR incorporation into lymphocytes)” value is recorded as 2500 ± 350 CPM in the assay on human blood lymphocytes (Old (n = 20)) and 8155 ± 986 CPM in the assay on human blood lymphocytes (Young (n = 20)). The “human immune function (in words)” value in the assay on human blood lymphocytes (summary of Table 5-10) was “increase human immune function significantly”. In addition, in assay [1] (mice), the “protection of stem cells of bone marrow from killing effect of cyclophosphamide” value is reported as “protected”. Further, the “3H-TdR uptake in marrow and spleen” value in assay [1] (setting [2]) is recorded as “higher”. Also, the “cells in bone-marrow (BMC)” value in [1] (setting [2]) is reported as “increased”. In addition, in assay [1] (setting [2]), the “endogenous colonies in spleen” value is on record as “increased”. Also, the “recovery rate of hemopoieses” value in assay [1] (setting [2]) is “markedly improve”. Further, the “Mean (CFU-S ± SD)” value in assay [1] (mice treated by cyclophosphamide, spleen colony assay) is recorded as 27.2 ± 3.0. The Testosterone level in the assay with testosterone (rats treated by ICN+CYE (cyclophosphamide), killed 30th day after administration, X ± SD) worked out at 154.6 ± 19.8 ng/dL. For the same substance, the “level of testosterone (in words)” value in the assay with testosterone (summary of Table 1) is “increase the level of testosterone significantly”. Besides, in the assay with peritoneal macrophage, the “Phagocytic (rate ± SD)” value worked out at 28.5 ± 3.0. Besides, the Ejaculation proportion in the assay on male mice (male mice, 15th day) was 93%. In addition, in the assay with male mice (summary of Table 4), the “treatment of infertility (in words)” value is recorded as “marked efficiency”. Further, the “IL-2 (U/ml) ± SD” value in the assay on interleukin-2 (rIL-2) worked out at 79.0 ± 8.5 U/ml. Besides, the Lipoperoxides in the assay with Lipoperoxides (1 h) is 0.75 ± 0.08 mmol MDA/g liver protein; with Lipoperoxides (3 h), 0.70 ± 0.07 mmol MDA/g liver protein; in the assay on Lipoperoxides (6 h), 0.80 ± 0.9 mmol MDA/g liver protein; in the assay with Lipoperoxides (12 h), 0.70 ± 0.9 mmol MDA/g liver protein; with Lipoperoxides (24 h), 1.0 ± 0.12 mmol MDA/g liver protein. In addition, the “protection of white blood cells from killing effect of cyclophosphamide” value in the assay on white blood cells (rats) is reported as “protected”. The “White blood cells × 10^3/cm^3 ± SD” value in the assay on white blood cells (rats treated by cyclophosphamide, 10 days treatment) is listed as 12.8 ± 2.0* 10^3/cm^3.
